Results as given in patent US3966956A, “[1-(P-Chlorobenzoyl)-5-methoxy-2-methyl-3-indole]acetoxyacetic acid and salts in treating inflammation” (Troponwerke Dinklage & Company, priority 1972, dated 1976).
Structures can show the parent of a compound that is named as a salt. Where two headings read alike, the source gives them in different places.

Experiments:
kaolin oedema of the paw = kaolin oedema of the paw of a rat; format: in vivo; settings: for ED50: read-out: ED50 (dose which reduces the oedemas by half as compared with a control group)
[1] = system: formalin oedema of the paw; test: formalin oedema on the paw of a rat; format: in vivo; settings: once orally
Text: (§1) Furthermore, with two other forms of inflammation, the inflammations produced with formalin and carrageenin on the paw of a rat, the oedema-inhibiting efficiency of I is stronger than that of II. […] These differences are also statistically significant.

[2] = system: carrageenin oedema of the paw; test: carrageenin oedema on the paw of a rat; format: in vivo; settings: once orally
Text: as §1

adjuvant arthritis = test: arthritis produced in the rat with Freud's adjuvants; format: in vivo
[3] = system: sulphydryl groups present in the serum; test: Gerber method: reaction velocity of serum sulphydryl groups with 2,2'-dinitro-5,5-dithiobenzoic acid; format: biochemical; settings: concentration range 0.5 to 3 mMol/liter
Text: Another characteristic test for determining the activity of non-steroid antiphlogistic substances is the method described by D. A. Gerber, N. Cohen and R. Giustra (cf. Biochem. Pharmacol. 16 (1967) 115) of influencing the physical-chemical behaviour of native protein, for example influencing the reaction velocity of the sulphydryl groups present in the serum with 2,2'-dinitro-5,5-dithiobenzoic acid. […] Since, according to Gerber et al, (loc. cit.), the percentage increase in reaction velocity is directly proportional to antiphlogistic activity, a greater activity of I by comparison with II can also be derived from this […] test; this applies above all in the lower concentration ranges (105:39) which come closest to the therapeutically attainable concentrations. In this case, too, the intact compound I can be shown to be the only active component.

human albumin = test: protein binding by the ultracentrifuging method; format: in vitro ADME; settings: same protein and equivalent substance concentration
Text: Another interesting criterion for the activity of a pharmacon is protein binding. It is known that, in the serum, pharmacons are partly bound to protein and it is only those fractions that are not bound to protein which are responsible for the onset of biological activity. […] Where human albumin is used, the differences amount to about 60%, in other words, for the same protein concentration and an equivalent substance concentration, the values for non-protein-bound I are about 60% higher than those of II. The values found for II are consistent with those described in the literature (cf. E. Hvidberg et al, Eur. J. clin. Pharmacol. 4 (1972), 119). Accordingly, I can be expected to show greater activity in this test as well, i.e. a smaller dosage of I is required which can again be of advantage in toxicological terms.

[4] = resorption after oral administration in dogs; format: in vivo; settings: dog
[5] = acute oral toxicity (LD50), mouse; settings: in vivo, single oral administration, I given as sodium salt
Description: (§2) The toxicity data (LD50) of both compounds are as follows:
(§3) As regards I, after single oral administration of 55.5 mg/kg to the mouse and 38.9 mg/kg to the rat (using the sodium salt of I). The corresponding data for II are 18.4 and 24.5 mg/kg, respectively.

[6] = acute oral toxicity (LD50), rat; settings: in vivo, single oral administration, I given as sodium salt
Description: as §2, §3

protein = test: Mizushima's Test (inhibition of protein hazing); format: biochemical
Description: It was also possible to confirm the superiority of I over II in Mizushima's Test in which potent antiphlogistics are known to inhibit protein hazing directly proportional to their antiphlogistic potency (cf. Arch. int. Pharmacodyn. 149 (1964), 1, and 157 (1965), 115).
A DE50 of 0.07 mg/ml was measured for the sodium salt of I, in other words the level of protein hazing was inhibited by 50% at this concentration.

[7] = cited from earlier work
[8] = patients, relatively slight side effects and serious cases; cited from earlier work
[9] = stability of the dissolved sodium salt in water or water/alcohol; format: physicochemical; settings: aqueous or aqueous-alcoholic solution
Text: the free acid I can be converted into its salts in a manner known per se. Pharmacologically acceptable and conventional inorganic and organic bases can be considered for this purpose.

Q: With `COc1ccc2c(c1)c(CC(=O)OCC(=O)O)c(C)n2C(=O)c1ccc(Cl)cc1` [I, [1-(p-chlorobenzoyl)-5-methoxy-2-methyl-3-indole]-acetoxyacetic acid] as the compound, how does the ED50 (kaolin oedema of the paw; rat, single oral application, range of confidence (P = 5%): I 0.37 to 0.67, II 0.83 to 1.40) read?
A: 0.5 mg/kg

Q: What about the “relative effectiveness I versus II on kaolin oedema” value (kaolin oedema of the paw; rat, single oral, from ED50) of the same compound?
A: about twice as effective as II

Q: And the “inhibition of formalin oedema” value ([1]; 1.5 mg/kg)?
A: 25%

Q: And the “inhibition of carrageenin oedema” value ([2]; 1.5 mg/kg)?
A: 62%

Q: What about the “antiphlogistic effect on adjuvant arthritis compared with II” value (adjuvant arthritis; oral, daily dose 3.5 mg/kg of I versus equimolar 3 mg/kg of II) of the same compound?
A: decidedly stronger than that of the equimolar daily dose of 3 mg/kg of II

Q: What about the “inflammation-inhibiting efficiency on adjuvant arthritis” value (adjuvant arthritis; primary and generalised inflammation symptoms) of the same compound?
A: strong inflammation-inhibiting efficiency

Q: And the “increase in reaction velocity of serum sulphydryl groups” value [3]?
A: 105-335%

Q: What about the “increase of non-protein-bound fraction over II” value (human albumin) of the same compound?
A: about 60%

Q: And the “detection as an unchanged molecule in the organism” value [4]?
A: can be detected as an unchanged molecule for several hours in the organism

Q: And the “resorption after oral administration” value [4]?
A: well resorbed after oral administration

Q: And the LD50 [5]?
A: 55.5 mg/kg

Q: And the LD50 [6]?
A: 38.9 mg/kg

Q: What does the source list for `COc1ccc2c(c1)c(CC(=O)O)c(C)n2C(=O)c1ccc(Cl)cc1` [II, 1-(p-chlorobenzoyl)-5-methoxy-2-methyl-3-indole acetic acid, reference compound]?
A: ED50 (kaolin oedema of the paw; Rattus norvegicus, po): 1.04 mg/kg; inhibition of formalin oedema ([1]; 1.6 mg/kg): 13.8%; inhibition of carrageenin oedema ([2]; 1.6 mg/kg): 42%; DE50 (concentration inhibiting the level of protein hazing by 50%) (protein): 0.13 mg/mL; increase in reaction velocity of serum sulphydryl groups [3]: 39-272%; LD50 [5]: 18.4 mg/kg; LD50 [6]: 24.5 mg/kg; patients in whom therapy had to be discontinued because of the side effects [7]: ~10%; side effects [8]: neurosensitive disturbances such as headaches, vertigos and concentration difficulties, digestive complaints with loss of appetite, sickness, stomach pains, diarrhoea and, finally, some serious cases of intestinal bleeding, stomach ulcers and, occasionally, neurological deficiency symptoms

Q: With `COc1ccc2c(c1)c(CC(=O)OCC(=O)O)c(C)n2C(=O)c1ccc(Cl)cc1` [sodium salt of I] as the compound, how does the “DE50 (concentration inhibiting the level of protein hazing by 50%)” value (protein) read?
A: 0.07 mg/mL

Q: What about the “stability/clarity of solution of the sodium salt” value [9] of the same compound?
A: the solution remains clear for a considerable period of time

Q: Which “stability/clarity of solution of the sodium salt” value [9] does the source give for `COc1ccc2c(c1)c(CC(=O)O)c(C)n2C(=O)c1ccc(Cl)cc1` [sodium salt of the known compound II, reference compound] here?
A: almost immediately, a clouding of the solution and the compound II begins to decompose
